From patent US9321773B2, “Compounds” (Respivert Ltd, priority 2009, dated 2016)
Read-outs that look alike come from different tables or passages of the source.

Key:
[1] = system: H2O2 induced pAkt in D-U937 cells; test: PI3Kδ Cell Based Assay (H2O2 induced pAkt); conditions: Homo sapiens
How it was run: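 Read-out is the pAkt/total Akt signal ratio, measured with anti-pAkt and anti-pan-Akt antibodies after H2O2 stimulation. Cells were U937 monocytes given PMA (100 ng/mL) for 48 to 72 hr. IC50 values fitted from compound serial dilutions.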

[2] = system: PMA-differentiated U937 cells; test: MTT Assay (cell viability); format: cell-based, Human; conditions: percentage loss of cell viability; for Cell Viability MTT Assay in D-U937 cells at 4 hr: 4 hr in 5% FCS; for Cell Viability MTT Assay in D-U937 cells at 24 hr: 24 hr in 10% FCS
How it was run: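 Differentiated U937 cells treated with compound for 4 hr (5% FCS) or 24 hr (10% FCS), then given MTT for 1 hr; formazan dissolved in DMSO and absorbance read at 550 nm. Viability loss expressed as % versus 0.5% DMSO vehicle.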

[3] = Stereochemical analysis by chiral stationary phase HPLC (atropisomerism); format: physicochemical; conditions: for atropisomerism by chiral stationary phase HPLC: chiral stationary phase HPLC (16 different conditions for the examples)
Experimental: Each of these mobile phase are compatible with the column packings referred to above, providing sixteen different solvent and stationary phase permutations. Modifiers such as triethylamine (0.1%), formic acid (0.1%) may be added to improve the resolution
Semi-preparative Chiral Stationary Phase LC-UV was performed on a Gilson preparative modular system using a Daicel Chiralpak AD semi-prep column ([…], 20×250 mm) and a flow rate of 18 mL/min eluting with an isocratic method over 20 min using […] heptane:IPA and 0.1% triethylamine employing an injection volume of 1.0 mL.

recombinant PI3 kinase α = recombinant PI3 kinase α (Homo sapiens (Human), UniProt P42336); test: Enzyme Inhibition Assay (HTRF PI3K enzyme assay, TR-FRET); format: biochemical; conditions: activity range; read-out: PI3 Kinase Inhibition IC50 values at stated Isozyme α
Sequence of recombinant PI3 kinase α (P42336 whole entry, the tested form may be a part): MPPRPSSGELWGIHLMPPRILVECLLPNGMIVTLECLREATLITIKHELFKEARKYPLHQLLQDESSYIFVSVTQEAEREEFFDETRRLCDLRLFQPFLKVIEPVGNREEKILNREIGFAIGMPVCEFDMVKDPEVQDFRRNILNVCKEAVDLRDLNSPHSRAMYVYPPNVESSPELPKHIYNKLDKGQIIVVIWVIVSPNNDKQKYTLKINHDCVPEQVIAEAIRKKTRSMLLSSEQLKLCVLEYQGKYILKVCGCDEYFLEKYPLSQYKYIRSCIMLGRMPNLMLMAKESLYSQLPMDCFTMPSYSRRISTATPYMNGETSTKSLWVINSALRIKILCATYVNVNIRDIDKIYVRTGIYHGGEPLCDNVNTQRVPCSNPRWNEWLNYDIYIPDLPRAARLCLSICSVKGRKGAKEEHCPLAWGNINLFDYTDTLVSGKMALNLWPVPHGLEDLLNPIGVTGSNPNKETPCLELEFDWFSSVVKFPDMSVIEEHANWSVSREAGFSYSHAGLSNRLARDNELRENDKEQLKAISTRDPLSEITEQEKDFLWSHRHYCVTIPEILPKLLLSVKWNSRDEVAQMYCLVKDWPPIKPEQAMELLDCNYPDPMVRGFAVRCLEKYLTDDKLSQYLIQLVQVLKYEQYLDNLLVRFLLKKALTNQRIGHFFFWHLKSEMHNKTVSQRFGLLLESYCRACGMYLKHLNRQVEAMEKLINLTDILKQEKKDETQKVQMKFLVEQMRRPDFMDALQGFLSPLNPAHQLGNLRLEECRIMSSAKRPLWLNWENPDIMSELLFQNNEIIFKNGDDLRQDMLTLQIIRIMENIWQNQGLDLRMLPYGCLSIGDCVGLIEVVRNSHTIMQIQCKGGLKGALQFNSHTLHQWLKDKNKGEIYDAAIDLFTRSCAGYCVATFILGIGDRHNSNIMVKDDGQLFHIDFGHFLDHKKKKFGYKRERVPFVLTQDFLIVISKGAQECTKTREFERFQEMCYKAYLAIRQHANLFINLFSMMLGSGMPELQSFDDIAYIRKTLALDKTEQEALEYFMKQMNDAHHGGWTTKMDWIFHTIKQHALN
Sequence of recombinant PI3 kinase α (P27986 whole entry partner, the tested form may be a part): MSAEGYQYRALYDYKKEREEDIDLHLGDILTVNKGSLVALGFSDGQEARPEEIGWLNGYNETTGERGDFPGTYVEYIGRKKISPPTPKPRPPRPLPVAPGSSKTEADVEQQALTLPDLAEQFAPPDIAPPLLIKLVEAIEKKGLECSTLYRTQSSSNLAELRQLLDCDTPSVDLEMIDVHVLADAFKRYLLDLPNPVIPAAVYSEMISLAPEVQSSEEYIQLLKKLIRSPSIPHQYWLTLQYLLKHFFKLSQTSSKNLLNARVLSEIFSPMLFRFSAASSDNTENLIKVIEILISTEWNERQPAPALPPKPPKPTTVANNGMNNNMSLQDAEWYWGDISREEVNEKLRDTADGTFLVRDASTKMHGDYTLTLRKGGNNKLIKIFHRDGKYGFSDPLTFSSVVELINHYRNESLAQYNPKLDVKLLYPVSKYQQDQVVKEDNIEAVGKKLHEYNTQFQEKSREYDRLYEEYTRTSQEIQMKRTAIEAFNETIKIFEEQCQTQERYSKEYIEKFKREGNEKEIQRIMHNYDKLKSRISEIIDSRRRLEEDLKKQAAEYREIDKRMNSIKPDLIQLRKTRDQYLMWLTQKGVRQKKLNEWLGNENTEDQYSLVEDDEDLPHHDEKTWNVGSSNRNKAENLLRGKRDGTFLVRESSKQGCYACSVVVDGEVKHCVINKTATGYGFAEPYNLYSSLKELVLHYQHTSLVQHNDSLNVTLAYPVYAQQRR
How it was run: (§1)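 TR-FRET readout after 15-18 hr at RT with biotinylated PIP3, GST-tagged GRP1 PH domain and europium/APC fluorophores; product PIP3 displaces the tracer and lowers the signal. Beforehand, compound and PIP2 were reacted for 2 hr at RT with human recombinant PI3Kα, δ or γ.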

recombinant PI3 kinase δ = recombinant PI3 kinase δ (Homo sapiens (Human), UniProt O00329); test: as above; format: biochemical; conditions: activity range; read-out: PI3 Kinase Inhibition IC50 values at stated Isozyme δ
Sequence of recombinant PI3 kinase δ (O00329 whole entry): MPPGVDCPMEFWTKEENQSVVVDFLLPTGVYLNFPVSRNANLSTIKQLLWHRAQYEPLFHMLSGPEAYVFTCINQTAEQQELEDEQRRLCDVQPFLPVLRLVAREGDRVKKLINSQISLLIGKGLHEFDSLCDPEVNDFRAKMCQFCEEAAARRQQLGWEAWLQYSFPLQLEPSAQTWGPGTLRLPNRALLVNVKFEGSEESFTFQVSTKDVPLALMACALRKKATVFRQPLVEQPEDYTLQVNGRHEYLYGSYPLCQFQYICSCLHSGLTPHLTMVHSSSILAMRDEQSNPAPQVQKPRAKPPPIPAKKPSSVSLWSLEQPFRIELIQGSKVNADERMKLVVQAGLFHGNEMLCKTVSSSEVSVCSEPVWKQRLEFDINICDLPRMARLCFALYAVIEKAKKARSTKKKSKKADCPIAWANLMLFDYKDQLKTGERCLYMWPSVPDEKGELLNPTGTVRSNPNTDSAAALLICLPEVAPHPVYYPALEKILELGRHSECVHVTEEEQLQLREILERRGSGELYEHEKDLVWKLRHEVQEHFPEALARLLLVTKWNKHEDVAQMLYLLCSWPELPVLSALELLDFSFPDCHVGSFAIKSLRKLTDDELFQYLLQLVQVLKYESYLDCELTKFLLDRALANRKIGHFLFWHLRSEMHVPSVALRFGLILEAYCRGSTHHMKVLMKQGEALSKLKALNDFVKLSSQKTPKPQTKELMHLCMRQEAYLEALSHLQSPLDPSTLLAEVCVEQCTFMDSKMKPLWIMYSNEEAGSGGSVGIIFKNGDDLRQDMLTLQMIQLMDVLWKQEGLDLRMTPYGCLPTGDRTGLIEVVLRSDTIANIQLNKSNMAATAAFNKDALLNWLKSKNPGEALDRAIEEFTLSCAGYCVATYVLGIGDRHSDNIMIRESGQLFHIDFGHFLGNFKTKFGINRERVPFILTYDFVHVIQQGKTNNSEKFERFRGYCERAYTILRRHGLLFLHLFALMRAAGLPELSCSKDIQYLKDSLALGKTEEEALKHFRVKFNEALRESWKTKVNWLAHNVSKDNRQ
Sequence of recombinant PI3 kinase δ (P27986 whole entry partner): as the sequence (P27986 whole entry partner, the tested form may be a part) above
How it was run: as §1

recombinant PI3 kinase γ = recombinant PI3 kinase γ (Homo sapiens (Human), UniProt P48736); test: as above; format: biochemical; conditions: activity range; read-out: PI3 Kinase Inhibition IC50 values at stated Isozyme γ
Sequence of recombinant PI3 kinase γ (P48736 whole entry): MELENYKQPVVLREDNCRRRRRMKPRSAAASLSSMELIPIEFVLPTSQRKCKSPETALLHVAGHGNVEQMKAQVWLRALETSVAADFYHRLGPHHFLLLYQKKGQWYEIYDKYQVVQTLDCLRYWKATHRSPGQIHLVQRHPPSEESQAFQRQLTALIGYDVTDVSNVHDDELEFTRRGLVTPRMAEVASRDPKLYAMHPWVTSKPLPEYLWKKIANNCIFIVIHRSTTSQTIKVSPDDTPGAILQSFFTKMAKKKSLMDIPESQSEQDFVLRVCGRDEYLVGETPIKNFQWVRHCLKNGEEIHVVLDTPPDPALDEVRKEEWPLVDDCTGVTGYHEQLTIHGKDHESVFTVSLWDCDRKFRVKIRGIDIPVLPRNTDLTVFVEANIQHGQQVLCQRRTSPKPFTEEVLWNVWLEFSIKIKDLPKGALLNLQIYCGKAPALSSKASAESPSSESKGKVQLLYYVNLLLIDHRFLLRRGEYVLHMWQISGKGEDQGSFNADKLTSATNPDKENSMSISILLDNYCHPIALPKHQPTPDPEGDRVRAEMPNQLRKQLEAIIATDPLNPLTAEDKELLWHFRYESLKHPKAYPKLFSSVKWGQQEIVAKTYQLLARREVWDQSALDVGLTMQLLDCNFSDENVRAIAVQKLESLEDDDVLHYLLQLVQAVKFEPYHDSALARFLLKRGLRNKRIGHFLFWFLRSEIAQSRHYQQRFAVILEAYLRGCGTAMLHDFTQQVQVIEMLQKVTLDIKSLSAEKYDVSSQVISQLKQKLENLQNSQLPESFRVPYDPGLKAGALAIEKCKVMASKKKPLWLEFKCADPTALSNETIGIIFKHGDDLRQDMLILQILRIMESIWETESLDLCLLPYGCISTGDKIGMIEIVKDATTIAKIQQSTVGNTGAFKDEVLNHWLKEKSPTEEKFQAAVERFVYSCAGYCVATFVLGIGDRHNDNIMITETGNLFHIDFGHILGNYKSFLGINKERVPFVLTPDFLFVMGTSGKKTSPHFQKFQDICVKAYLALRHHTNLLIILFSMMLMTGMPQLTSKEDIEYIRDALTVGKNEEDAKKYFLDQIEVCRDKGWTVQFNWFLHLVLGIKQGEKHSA
How it was run: as §1

[4] = dU937, activity range, D-U937 cells, read-out: Cellular Activity IC50 values (H2O2 induced pAkt D-U937 Cells)

C#Cc1cccc2nc(Cn3nc(-c4ccc(O)cc4)c4c(N)ncnc43)n(Cc3cccc(Cl)c3F)c(=O)c12 [Example 33, 2-((4-Amino-3-(4-hydroxyphenyl)-1H-pyrazolo[3,4-d]pyrimidin-1-yl)methyl)-3-(3-chloro-2-fluorobenzyl)-5-ethynylquinazolin-4(3H)-one]
IC50 [1, 4]: < 10 nM
Cell Viability MTT Assay in D-U937 cells at 4 hr [2]: − (− <30%)
Cell Viability MTT Assay in D-U937 cells at 24 hr [2]: − (− <30%)
atropisomerism by chiral stationary phase HPLC [3]: no evidence for atropisomerism was observed
IC50 (recombinant PI3 kinase α): 50 to 1000 nM
IC50 (recombinant PI3 kinase δ): < 50 nM
IC50 (recombinant PI3 kinase γ): 50 to 1000 nM

C#Cc1cccc2nc(Cn3nc(-c4ccc(O)cc4)c4c(N)ncnc43)n(Cc3cccc(Cl)c3)c(=O)c12 [Example 11, 2-((4-Amino-3-(4-hydroxyphenyl)-1H-pyrazolo[3,4-d]pyrimidin-1-yl)methyl)-3-(3-chlorobenzyl)-5-ethynyl quinazolin-4(3H)-one]
IC50 ([1]; dU937, read-out: Cellular Activity IC50 values (H2O2 induced pAkt D-U937 Cells)): < 10 nM
Cell Viability MTT Assay in D-U937 cells at 4 hr [2]: − (− <30%)
Cell Viability MTT Assay in D-U937 cells at 24 hr [2]: − (− <30%)
atropisomerism by chiral stationary phase HPLC [3]: no evidence for atropisomerism was observed
IC50 (recombinant PI3 kinase α): 50 to 1000 nM
IC50 (recombinant PI3 kinase δ): < 50 nM
IC50 (recombinant PI3 kinase γ): 50 to 1000 nM

C#Cc1cccc2nc(Cn3nc(-c4cccc(O)c4)c4c(N)ncnc43)n(Cc3ccc(S(C)(=O)=O)cc3)c(=O)c12 [Example 19, 2-((4-Amino-3-(3-hydroxyphenyl)-1H-pyrazolo[3,4-d]pyrimidin-1-yl)methyl)-5-ethynyl-3-(4-(methylsulfonyl)benzyl)quinazolin-4(3H)-one]
IC50 [1, 4]: < 10 nM
Cell Viability MTT Assay in D-U937 cells at 4 hr [2]: − (− <30%)
Cell Viability MTT Assay in D-U937 cells at 24 hr [2]: − (− <30%)
atropisomerism by chiral stationary phase HPLC [3]: no evidence for atropisomerism was observed
IC50 (recombinant PI3 kinase α): 50 to 1000 nM
IC50 (recombinant PI3 kinase δ): < 50 nM
IC50 (recombinant PI3 kinase γ): 50 to 1000 nM

Cc1ccccc1-n1c(Cn2nc(-c3cccc(O)c3)c3c(N)ncnc32)nc2cccc(C)c2c1=O [PIK294, reference compound]
interconversion of separated atropisomers ([3]; ambient and elevated temperatures, over several days): no detectable signs of interconversion
atropisomerism by chiral stationary phase HPLC [3]: 1:1 mixture of enantiomeric atropisomers

Nc1ncnc2c1c(-c1cccc(O)c1)nn2Cc1nc2cccc(C#CCCNC(=O)N3CCOCC3)c2c(=O)n1Cc1ccccc1Cl [Example 72, N-(4-(2-((4-Amino-3-(3-hydroxyphenyl)-1H-pyrazolo[3,4-d]pyrimidin-1-yl)methyl)-3-(2-chlorobenzyl)-4-oxo-3,4-dihydroquinazolin-5-yl)but-3-yn-1-yl)morpholine-4-carboxamide]
IC50 [1, 4]: < 10 nM
Cell Viability MTT Assay in D-U937 cells at 4 hr [2]: − (− <30%)
Cell Viability MTT Assay in D-U937 cells at 24 hr [2]: − (− <30%)
IC50 (recombinant PI3 kinase α): 50 to 1000 nM
IC50 (recombinant PI3 kinase δ): < 50 nM
IC50 (recombinant PI3 kinase γ): < 50 nM

Nc1ncnc2c1c(-c1ccc(O)cc1)nn2Cc1nc2cccc(C#CCCCNC3CCCC3)c2c(=O)n1Cc1ccccc1Cl [Example 7, 2-((4-Amino-3-(4-hydroxyphenyl)-1H-pyrazolo[3,4-d]pyrimidin-1-yl)methyl)-3-(2-chlorobenzyl)-5-(5-(cyclopentylamino)pent-1-ynyl)quinazolin-4(3H)-one]
IC50 [1, 4]: < 10 nM
Cell Viability MTT Assay in D-U937 cells at 4 hr [2]: − (− <30%)
Cell Viability MTT Assay in D-U937 cells at 24 hr [2]: − (− <30%)
IC50 (recombinant PI3 kinase α): 50 to 1000 nM
IC50 (recombinant PI3 kinase δ): < 50 nM
IC50 (recombinant PI3 kinase γ): 50 to 1000 nM

C#Cc1cccc2nc(Cn3nc(-c4ccc(O)cc4)c4c(N)ncnc43)n(Cc3ccc(C(F)(F)F)cc3)c(=O)c12 [Example 29, 2-((4-Amino-3-(4-hydroxyphenyl)-1H-pyrazolo[3,4-d]pyrimidin-1-yl)methyl)-5-ethynyl-3-(4-(trifluoromethyl)benzyl)quinazolin-4(3H)-one]
IC50 [1, 4]: < 10 nM
Cell Viability MTT Assay in D-U937 cells at 4 hr [2]: − (− <30%)
Cell Viability MTT Assay in D-U937 cells at 24 hr [2]: − (− <30%)
IC50 (recombinant PI3 kinase α): 50 to 1000 nM
IC50 (recombinant PI3 kinase δ): < 50 nM
IC50 (recombinant PI3 kinase γ): 50 to 1000 nM

Nc1ncnc2c1c(-c1ccc(O)cc1)nn2Cc1nc2cccc(C#CCOc3ccccc3)c2c(=O)n1Cc1ccccc1Cl [Example 52, 2-((4-Amino-3-(4-hydroxyphenyl)-1H-pyrazolo[3,4-d]pyrimidin-1-yl)methyl)-3-(2-chlorobenzyl)-5-(3-phenoxyprop-1-ynyl)quinazolin-4(3H)-one]
IC50 [1, 4]: < 10 nM
Cell Viability MTT Assay in D-U937 cells at 4 hr [2]: − (− <30%)
Cell Viability MTT Assay in D-U937 cells at 24 hr [2]: − (− <30%)
IC50 (recombinant PI3 kinase α): 50 to 1000 nM
IC50 (recombinant PI3 kinase δ): < 50 nM
IC50 (recombinant PI3 kinase γ): < 50 nM

CN1CCN(C(=O)CCCC#Cc2cccc3nc(Cn4nc(-c5cccc(O)c5)c5c(N)ncnc54)n(Cc4ccccc4Cl)c(=O)c23)CC1 [Example 69, 2-((4-Amino-3-(3-hydroxyphenyl)-1H-pyrazolo[3,4-d]pyrimidin-1-yl)methyl)-3-(2-chlorobenzyl)-5-(6-(4-methylpiperazin-1-yl)-6-oxohex-1-yn-1-yl)quinazolin-4(3H)-one]
IC50 [1, 4]: < 10 nM
Cell Viability MTT Assay in D-U937 cells at 4 hr [2]: + (+ >30%)
Cell Viability MTT Assay in D-U937 cells at 24 hr [2]: − (− <30%)
IC50 (recombinant PI3 kinase α): 50 to 1000 nM
IC50 (recombinant PI3 kinase δ): < 50 nM
IC50 (recombinant PI3 kinase γ): < 50 nM

CC(=O)N1CCN(C(=O)CCCC#Cc2cccc3nc(Cn4nc(-c5ccc(O)cc5)c5c(N)ncnc54)n(Cc4ccccc4Cl)c(=O)c23)CC1 [Example 71]
IC50 [1, 4]: < 10 nM
Cell Viability MTT Assay in D-U937 cells at 4 hr [2]: − (− <30%)
Cell Viability MTT Assay in D-U937 cells at 24 hr [2]: − (− <30%)
IC50 (recombinant PI3 kinase α): 50 to 1000 nM
IC50 (recombinant PI3 kinase δ): < 50 nM
IC50 (recombinant PI3 kinase γ): < 50 nM

Cc1nc(Cn2c(Cn3nc(-c4cccc(O)c4)c4c(N)ncnc43)nc3cccc(C#CCCCC(=O)N4CCOCC4)c3c2=O)cs1 [Example 68, 2-((4-Amino-3-(3-hydroxyphenyl)-1H-pyrazolo[3,4-d]pyrimidin-1-yl)methyl)-3-((2-methylthiazol-4-yl)methyl)-5-(6-morpholino-6-oxohex-1-yn-1-yl)quinazolin-4(3H)-one]
IC50 [1, 4]: < 10 nM
Cell Viability MTT Assay in D-U937 cells at 4 hr [2]: − (− <30%)
Cell Viability MTT Assay in D-U937 cells at 24 hr [2]: − (− <30%)
IC50 (recombinant PI3 kinase α): 50 to 1000 nM
IC50 (recombinant PI3 kinase δ): < 50 nM
IC50 (recombinant PI3 kinase γ): < 50 nM

C#Cc1cccc2nc(Cn3nc(-c4ccc(O)cc4)c4c(N)ncnc43)n(Cc3ccc(Cl)cc3F)c(=O)c12 [Example 35, 2-((4-Amino-3-(4-hydroxyphenyl)-1H-pyrazolo[3,4-d]pyrimidin-1-yl)methyl)-3-(4-chloro-2-fluorobenzyl)-5-ethynylquinazolin-4(3H)-one]
IC50 [1, 4]: < 10 nM
Cell Viability MTT Assay in D-U937 cells at 4 hr [2]: − (− <30%)
Cell Viability MTT Assay in D-U937 cells at 24 hr [2]: − (− <30%)
IC50 (recombinant PI3 kinase α): 50 to 1000 nM
IC50 (recombinant PI3 kinase δ): < 50 nM
IC50 (recombinant PI3 kinase γ): 50 to 1000 nM

C#Cc1cccc2nc(Cn3nc(-c4ccc(O)cc4)c4c(N)ncnc43)n(Cc3cc(OC)ccc3F)c(=O)c12 [Example 42, 2-((4-Amino-3-(4-hydroxyphenyl)-1H-pyrazolo[3,4-d]pyrimidin-1-yl)methyl)-5-ethynyl-3-(2-fluoro-5-methoxybenzyl)quinazolin-4(3H)-one]
IC50 [1, 4]: < 10 nM
Cell Viability MTT Assay in D-U937 cells at 4 hr [2]: − (− <30%)
Cell Viability MTT Assay in D-U937 cells at 24 hr [2]: − (− <30%)
IC50 (recombinant PI3 kinase α): 50 to 1000 nM
IC50 (recombinant PI3 kinase δ): < 50 nM
IC50 (recombinant PI3 kinase γ): 50 to 1000 nM

COc1cc(-c2nn(Cc3nc4cccc(C#CCCCC(=O)N5CCOCC5)c4c(=O)n3Cc3ccccc3Cl)c3ncnc(N)c23)ccc1O [Example 95, 2-((4-Amino-3-(4-hydroxy-3-methoxyphenyl)-1H-pyrazolo[3,4-d]pyrimidin-1-yl)methyl)-3-(2-chlorobenzyl)-5-(6-morpholino-6-oxohex-1-ynyl)quinazolin-4(3H)-one]
IC50 [1, 4]: < 10 nM
Cell Viability MTT Assay in D-U937 cells at 4 hr [2]: − (− <30%)
Cell Viability MTT Assay in D-U937 cells at 24 hr [2]: − (− <30%)
IC50 (recombinant PI3 kinase α): 50 to 1000 nM
IC50 (recombinant PI3 kinase δ): < 50 nM
IC50 (recombinant PI3 kinase γ): < 50 nM

CN(C)C(=O)CCCC#Cc1cccc2nc(Cn3nc(-c4ccc(O)cc4)c4c(N)ncnc43)n(Cc3ccccc3Cl)c(=O)c12 [Example 88, 6-(2-((4-Amino-3-(4-hydroxyphenyl)-1H-pyrazolo[3,4-d]pyrimidin-1-yl)methyl)-3-(2-chlorobenzyl)-4-oxo-3,4-dihydroquinazolin-5-yl)-N,N-dimethylhex-5-ynamide]
IC50 [1, 4]: < 10 nM
Cell Viability MTT Assay in D-U937 cells at 4 hr [2]: − (− <30%)
Cell Viability MTT Assay in D-U937 cells at 24 hr [2]: − (− <30%)
IC50 (recombinant PI3 kinase α): 50 to 1000 nM
IC50 (recombinant PI3 kinase δ): < 50 nM
IC50 (recombinant PI3 kinase γ): < 50 nM
